Consider one compound from publication PMC10955127 (Frontiers in Pharmacology, 2024).

Entries after “also recorded” stand apart in the source; their conditions may differ. Read-outs that look alike come from different tables or passages of the source.

Data set [1] has as its target acetylcholinesterase (h) (Homo sapiens, UniProt P22303). The experiment in a line: Pharmacology profiling: acetylcholinesterase. Format: biochemical.
For data set [2], the system named is Thyroid (TR and TPO only). Also noted: method as in ToxCast. The conditions noted are these: ref ToxCast, cited from earlier work.
In data set [3] the target is Human MRP4 (Homo sapiens, UniProt O15439). The conditions noted are these: not told.
Data set [4] can be described thus: Deterministic PBPK model of plasma concentrations. Also noted: species or system human. The conditions noted are these: deterministic PBPK and Fup.
The test system of data set [5] is Aromatase. Also noted: method as in ToxCast database. To be noted: ref ToxCast database; cited from earlier work.
Data set [6] concerns the target Human MRP2 (Homo sapiens, UniProt Q92887). To be noted: not told.
Data set [7] concerns thyroid pathway. Also noted: method as in ToxCast database. The conditions noted are these: ref ToxCast database; cited from earlier work.
In data set [8] the test system is thyroid pathway. On the set-up: method as in ToxCast database. To be noted: ref ToxCast database; cited from earlier work. The source holds these as a separate data set.
The subject of data set [9] is rats. To be noted: teratogenic and embryotoxic effects; ref SCCS, 2023b; cited from earlier work.
In data set [10] the test system is androgen receptor. Also noted: method as in ToxCast database. The conditions noted are these: ref ToxCast database; cited from earlier work.
Data set [11] has as its system hiPSCs differentiated into cardiomyocytes, hepatocytes, or neural rosettes. To be noted: human.
The test system of data set [12] is estrogen receptor. On the set-up: method as in ToxCast database. The conditions noted are these: ref ToxCast database; cited from earlier work.
Data set [13] concerns the target COX1(h) (Homo sapiens, UniProt P23219). The data set can be described thus: Pharmacology profiling: COX1. Format: biochemical.
In data set [14] the test system is thyroid pathway. Also noted: method as in ToxCast database. The conditions noted are these: ref ToxCast database; cited from earlier work. This is another data set of the same source.
How the values of data set [15] were obtained:
Figure 8 provides an overview of the tiered workflow and the related in silico and in vitro NAMs used to calculate the MoIE. […] Since this assessment is conducted using plasma concentrations rather than external doses, the comparison is an MoIE.
In this assessment, the total plasma concentrations were used, rather than unbound concentrations, because they are compared with nominal doses used in the in vitro assays (biokinetics in the toxicogenomics incubations were not measured).

Chain of COX1(h) (P23219 24-599): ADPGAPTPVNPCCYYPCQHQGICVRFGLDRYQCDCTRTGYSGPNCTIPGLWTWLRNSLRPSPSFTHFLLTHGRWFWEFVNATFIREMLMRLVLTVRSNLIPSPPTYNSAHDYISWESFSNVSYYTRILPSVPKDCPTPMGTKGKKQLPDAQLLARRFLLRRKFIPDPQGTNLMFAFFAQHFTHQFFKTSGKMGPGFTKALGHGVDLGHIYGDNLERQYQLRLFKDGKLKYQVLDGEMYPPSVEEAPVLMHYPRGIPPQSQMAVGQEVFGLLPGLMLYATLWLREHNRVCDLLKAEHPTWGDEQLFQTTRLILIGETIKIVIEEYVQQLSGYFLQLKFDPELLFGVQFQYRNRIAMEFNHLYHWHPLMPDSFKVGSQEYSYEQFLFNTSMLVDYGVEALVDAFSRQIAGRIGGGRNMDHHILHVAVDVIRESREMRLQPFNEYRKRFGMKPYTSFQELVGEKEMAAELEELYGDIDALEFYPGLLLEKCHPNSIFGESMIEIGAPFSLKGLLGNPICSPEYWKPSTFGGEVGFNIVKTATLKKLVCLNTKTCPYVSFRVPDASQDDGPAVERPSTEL
Chain of acetylcholinesterase (h) (P22303 32-614): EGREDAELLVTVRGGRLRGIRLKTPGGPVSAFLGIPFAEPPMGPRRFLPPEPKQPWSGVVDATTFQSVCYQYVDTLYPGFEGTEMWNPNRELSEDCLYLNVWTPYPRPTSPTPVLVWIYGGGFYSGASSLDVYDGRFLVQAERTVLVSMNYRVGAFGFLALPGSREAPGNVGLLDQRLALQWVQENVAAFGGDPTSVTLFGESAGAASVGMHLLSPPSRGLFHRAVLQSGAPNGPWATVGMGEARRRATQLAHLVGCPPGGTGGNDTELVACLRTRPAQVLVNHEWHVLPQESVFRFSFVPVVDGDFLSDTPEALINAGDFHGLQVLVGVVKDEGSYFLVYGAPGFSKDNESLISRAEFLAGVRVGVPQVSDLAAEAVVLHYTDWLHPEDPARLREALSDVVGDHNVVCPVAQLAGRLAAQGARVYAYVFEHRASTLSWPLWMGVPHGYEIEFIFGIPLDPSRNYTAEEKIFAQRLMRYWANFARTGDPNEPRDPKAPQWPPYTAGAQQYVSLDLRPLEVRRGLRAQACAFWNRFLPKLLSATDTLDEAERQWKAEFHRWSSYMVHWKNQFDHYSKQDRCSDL
Chain of Human MRP2 (Q92887 whole entry): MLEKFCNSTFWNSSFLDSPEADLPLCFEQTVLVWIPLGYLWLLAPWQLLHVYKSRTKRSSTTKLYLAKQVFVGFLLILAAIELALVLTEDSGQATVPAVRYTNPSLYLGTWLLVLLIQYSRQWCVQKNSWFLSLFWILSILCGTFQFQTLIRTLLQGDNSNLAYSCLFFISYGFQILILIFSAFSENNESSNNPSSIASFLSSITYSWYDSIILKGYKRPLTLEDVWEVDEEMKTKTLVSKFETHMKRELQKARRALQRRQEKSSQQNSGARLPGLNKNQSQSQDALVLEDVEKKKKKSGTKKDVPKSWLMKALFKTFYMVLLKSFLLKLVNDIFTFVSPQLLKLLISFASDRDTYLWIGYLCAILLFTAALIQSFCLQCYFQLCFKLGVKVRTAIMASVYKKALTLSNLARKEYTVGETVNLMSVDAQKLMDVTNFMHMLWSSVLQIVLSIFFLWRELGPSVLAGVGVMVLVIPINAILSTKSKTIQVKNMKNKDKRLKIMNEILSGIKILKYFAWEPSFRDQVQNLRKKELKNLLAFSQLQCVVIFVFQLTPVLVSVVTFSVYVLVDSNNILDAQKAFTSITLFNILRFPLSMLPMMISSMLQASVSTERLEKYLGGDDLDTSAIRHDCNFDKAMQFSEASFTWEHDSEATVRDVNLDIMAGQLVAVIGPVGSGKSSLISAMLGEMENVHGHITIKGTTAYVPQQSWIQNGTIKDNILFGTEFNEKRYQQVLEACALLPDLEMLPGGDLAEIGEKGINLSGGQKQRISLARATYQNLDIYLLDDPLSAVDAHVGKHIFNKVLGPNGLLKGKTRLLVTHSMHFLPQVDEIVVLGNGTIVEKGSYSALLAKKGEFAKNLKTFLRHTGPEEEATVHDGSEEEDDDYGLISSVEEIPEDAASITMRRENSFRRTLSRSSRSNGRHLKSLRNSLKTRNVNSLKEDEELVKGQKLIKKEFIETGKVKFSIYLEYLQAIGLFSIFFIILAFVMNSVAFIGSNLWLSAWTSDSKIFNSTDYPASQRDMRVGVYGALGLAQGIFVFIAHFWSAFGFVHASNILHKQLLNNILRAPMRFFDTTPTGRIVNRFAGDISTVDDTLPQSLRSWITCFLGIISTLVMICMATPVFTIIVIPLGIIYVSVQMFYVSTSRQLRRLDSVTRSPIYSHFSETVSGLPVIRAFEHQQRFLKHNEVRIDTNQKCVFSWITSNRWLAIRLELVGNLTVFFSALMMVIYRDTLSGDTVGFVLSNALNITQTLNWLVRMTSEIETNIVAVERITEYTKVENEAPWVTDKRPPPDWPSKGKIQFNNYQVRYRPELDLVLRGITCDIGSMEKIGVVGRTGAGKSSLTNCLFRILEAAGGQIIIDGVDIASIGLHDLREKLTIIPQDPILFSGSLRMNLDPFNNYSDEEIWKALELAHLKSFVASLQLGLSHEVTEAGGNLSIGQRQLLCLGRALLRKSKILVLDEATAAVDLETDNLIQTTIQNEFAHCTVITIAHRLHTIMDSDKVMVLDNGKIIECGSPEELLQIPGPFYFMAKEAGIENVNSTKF
Chain of Human MRP4 (O15439 whole entry): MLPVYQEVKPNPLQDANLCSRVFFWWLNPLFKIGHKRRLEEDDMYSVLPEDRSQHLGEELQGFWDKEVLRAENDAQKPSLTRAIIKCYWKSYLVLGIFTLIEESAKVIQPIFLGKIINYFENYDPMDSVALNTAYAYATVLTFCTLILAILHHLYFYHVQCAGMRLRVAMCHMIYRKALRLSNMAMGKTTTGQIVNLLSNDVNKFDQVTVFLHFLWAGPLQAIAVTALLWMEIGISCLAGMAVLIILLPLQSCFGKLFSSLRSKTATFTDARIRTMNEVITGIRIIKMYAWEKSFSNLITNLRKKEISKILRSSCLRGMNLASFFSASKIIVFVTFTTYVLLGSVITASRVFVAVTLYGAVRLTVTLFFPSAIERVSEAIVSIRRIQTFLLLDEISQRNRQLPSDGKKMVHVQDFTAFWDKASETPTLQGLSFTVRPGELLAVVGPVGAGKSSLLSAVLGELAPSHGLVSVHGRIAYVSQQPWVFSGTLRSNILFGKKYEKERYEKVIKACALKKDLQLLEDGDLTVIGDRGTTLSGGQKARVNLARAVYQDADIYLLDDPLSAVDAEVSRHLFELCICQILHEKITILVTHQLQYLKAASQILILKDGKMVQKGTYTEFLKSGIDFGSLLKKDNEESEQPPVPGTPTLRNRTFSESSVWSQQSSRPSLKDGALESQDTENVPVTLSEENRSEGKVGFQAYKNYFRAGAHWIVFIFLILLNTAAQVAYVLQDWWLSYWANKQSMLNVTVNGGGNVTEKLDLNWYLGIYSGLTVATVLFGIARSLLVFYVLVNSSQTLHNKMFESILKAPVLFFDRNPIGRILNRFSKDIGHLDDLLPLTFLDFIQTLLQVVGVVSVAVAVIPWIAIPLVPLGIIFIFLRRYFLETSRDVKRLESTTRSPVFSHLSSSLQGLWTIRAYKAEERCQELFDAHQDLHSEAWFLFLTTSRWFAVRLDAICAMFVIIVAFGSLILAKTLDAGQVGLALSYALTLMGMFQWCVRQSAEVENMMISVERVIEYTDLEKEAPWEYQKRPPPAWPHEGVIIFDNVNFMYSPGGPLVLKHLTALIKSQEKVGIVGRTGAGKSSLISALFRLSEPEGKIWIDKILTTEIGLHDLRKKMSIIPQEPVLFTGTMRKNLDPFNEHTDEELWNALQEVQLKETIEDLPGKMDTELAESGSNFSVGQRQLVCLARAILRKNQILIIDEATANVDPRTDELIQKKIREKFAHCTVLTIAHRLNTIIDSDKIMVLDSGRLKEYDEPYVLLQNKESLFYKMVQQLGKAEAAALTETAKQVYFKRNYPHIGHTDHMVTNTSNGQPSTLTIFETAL

Turning to `O=C(O)c1ccccc1O` [SA, salicylic acid], the inhibition (in general, how much of the control response was suppressed) at 10 µM in data set [1] (10 µM SA, two technical replicates) turned out to be 25.4%. Further, in data set [1] (10 μM to 1 mM SA), the “Inhibition of acetylcholinesterase, follow-up” value is on record as not above 5%. For the same compound, in [2] (Tier 0), the “Thyroid (TR and TPO only): Experimental Data (call)” value was “Negative”. Besides, the “Thyroid (TR and TPO only): assays active / assays” value in [2] is listed as 0/11 active. In addition, the “Substrate of MRP4 (efflux)” value in data set [3] is reported as “not a substrate”. Moreover, the “Exposure of unbound SA compared to unbound BSal” value in [4] is reported as not below 5 fold. Also, in [5], the “Steroidogenesis Aromatase: Call” value is listed as “Negative”. The “Substrate of MRP2 (efflux)” value in [6] is given as “not a substrate”. For the same compound, the “Thyroid pathway mRNA induction: Call” value in data set [7] is listed as “Negative”. In [8], the “Thyroid pathway Reporter protein Agonist: Call” value is reported as “Negative”. In addition, the NOAEL (in general, the highest dose or exposure tested at which no adverse effect was seen) in data set [9] is 75 mg/kg bw. Moreover, the “Androgen pathway Dimerisation: Call” value in data set [10] is given as “Negative”. In data set [11], this compound showed a PoD of 500 µM. In [12], the “Estrogen pathway mRNA induction: Call” value is “Negative”. The “Inhibition of COX1, screening” value in data set [13] (10 µM) is reported as “did not inhibit”. Besides, the “Inhibition of COX1, follow-up” value in data set [13] (up to 10 mM) was “did not inhibit; also recorded: no effect”. Also, in [14], the “Thyroid pathway Reporter protein Antagonist: Call” value was “Negative”. The MoIE in data set [15] (PoD method 1 (213 µM) / CI95 Cmax 0.630 µM) stood at 338; in [15] (PoD method 1 (213 µM) / mean Cmax 0.273 µM) it was 780; in data set [15] (PoD method 2 ([…]) / CI95 Cmax 0.630 µM), 16; in data set [15] (PoD method 2 ([…]) / mean Cmax 0.273 µM) it was 38.
